Assay results taken from ChEMBL document CHEMBL6182930, “Discovery of TBK1Molecular Glue Degraders as a Potential Strategy for the Treatment of Autosomal Dominant Polycystic Kidney Disease (ADPKD)” (J Med Chem, 2025).
Calls of active or inactive are those of the source. No cut-off for these calls is given here.

Tests used:
[1] = target: Protein cereblon/Serine/threonine-protein kinase TBK1 (Homo sapiens) (UniProt Q9UHD2+Q96SW2); experiment: PROTAC activity at CRBN/TBK1 in human A549 cells assessed as induction of TBK1 degradation at 1 to 10 uM incubated for 16 hrs by Western blot analysis; type: cell-based; conditions: dose 1-10 µM
Protein cereblon/Serine/threonine-protein kinase TBK1 (Homo sapiens), sequence (Q96SW2 whole entry, looked up, one chain of several): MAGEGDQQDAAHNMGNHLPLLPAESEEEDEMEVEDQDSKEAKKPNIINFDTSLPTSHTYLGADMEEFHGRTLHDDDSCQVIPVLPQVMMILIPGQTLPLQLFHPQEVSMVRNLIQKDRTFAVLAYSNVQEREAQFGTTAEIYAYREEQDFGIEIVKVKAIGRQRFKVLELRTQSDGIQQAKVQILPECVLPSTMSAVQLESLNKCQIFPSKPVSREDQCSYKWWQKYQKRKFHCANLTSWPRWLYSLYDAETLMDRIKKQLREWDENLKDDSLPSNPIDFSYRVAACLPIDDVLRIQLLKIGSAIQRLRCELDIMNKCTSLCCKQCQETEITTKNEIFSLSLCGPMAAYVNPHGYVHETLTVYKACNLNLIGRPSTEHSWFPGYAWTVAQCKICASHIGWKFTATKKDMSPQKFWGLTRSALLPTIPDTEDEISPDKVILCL

[2] = target: T1, E3 ubiquitin-protein ligase RNF126/Serine/threonine-protein kinase TBK1 (Homo sapiens, UniProt Q9UHD2+Q9BV68); experiment: Molecular glue activity at RNF126/TBK1 in human A549 cells assessed as induction of TBK1 degradation at 1 uM incubated for 16 hrs by Western blot analysis; type: cell-based
T1 sequence (Q9BV68 2-311 partner limits assumed, one chain of several): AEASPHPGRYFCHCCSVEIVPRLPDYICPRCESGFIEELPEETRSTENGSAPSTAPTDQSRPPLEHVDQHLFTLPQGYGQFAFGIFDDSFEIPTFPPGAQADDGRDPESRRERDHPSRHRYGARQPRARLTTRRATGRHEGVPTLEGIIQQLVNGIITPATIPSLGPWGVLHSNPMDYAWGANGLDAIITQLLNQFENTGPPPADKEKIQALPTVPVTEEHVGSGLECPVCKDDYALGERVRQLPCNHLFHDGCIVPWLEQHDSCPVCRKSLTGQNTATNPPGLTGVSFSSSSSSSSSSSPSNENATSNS

[3] = target: T1, E3 ubiquitin-protein ligase RNF126/Serine/threonine-protein kinase TBK1; experiment: Molecular glue activity at RNF126/TBK1 in HEK293T cells assessed as induction of TBK1 degradation at 1 uM incubated for 16 hrs by Western blot analysis; type: cell-based
[4] = target: T2, Serine/threonine-protein kinase TBK1 (Homo sapiens, UniProt Q9UHD2); experiment: Inhibition of TBK1-dependent SEAP reporter gene expression in LPS-stimulated human THP1-Blue ISG cells incubated for 24 hrs by QUANTI-Blue reagent based analysis; type: cell-based
T2 sequence (Q9UHD2 whole entry): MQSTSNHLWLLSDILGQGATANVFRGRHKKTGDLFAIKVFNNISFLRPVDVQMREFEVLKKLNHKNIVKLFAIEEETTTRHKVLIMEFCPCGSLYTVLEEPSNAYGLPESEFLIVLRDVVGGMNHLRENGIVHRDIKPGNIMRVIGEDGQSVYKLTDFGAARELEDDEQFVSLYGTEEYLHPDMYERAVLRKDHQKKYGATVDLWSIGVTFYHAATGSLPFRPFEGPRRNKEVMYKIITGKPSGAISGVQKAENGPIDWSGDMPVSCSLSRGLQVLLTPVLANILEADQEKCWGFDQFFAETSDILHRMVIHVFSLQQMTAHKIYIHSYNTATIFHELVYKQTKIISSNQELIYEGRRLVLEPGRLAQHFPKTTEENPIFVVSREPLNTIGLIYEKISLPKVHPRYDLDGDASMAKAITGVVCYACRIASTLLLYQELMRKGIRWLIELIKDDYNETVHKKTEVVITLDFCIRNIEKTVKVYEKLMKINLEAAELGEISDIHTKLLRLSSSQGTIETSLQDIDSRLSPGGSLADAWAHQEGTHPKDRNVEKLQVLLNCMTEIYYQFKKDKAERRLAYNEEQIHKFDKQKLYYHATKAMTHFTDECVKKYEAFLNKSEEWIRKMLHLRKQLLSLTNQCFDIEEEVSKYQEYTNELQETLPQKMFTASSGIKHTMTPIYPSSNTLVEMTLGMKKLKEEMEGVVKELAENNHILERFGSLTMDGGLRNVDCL

[5] = test system: MDCK; experiment: Inhibition of cystogenesis in forskolin-stimulated MDCK cells assessed as reduction in cyst growth at 100 nM administrated for 8 days starting from day 4 to day 12 by imaging analysis; type: functional, cell-based; conditions: Canis lupus familiaris, time 8.0 day

Activity [1] | Structure (SMILES) | other results
inactive | O=C1CCC(N2C(=O)c3cccc(NCCCCCCCC(=O)N4CCN(Cc5cccc(Nc6ncc7ccn(CCCNC(=O)C8CCC8)c7n6)c5)CC4)c3C2=O)C(=O)N1 (stereo unspecified) | –
– | COc1ccc(C(=O)CCC(=O)N2CCN(CC3CCN(Cc4cccc(Nc5ncc6ccn(CCCNC(=O)C7CCC7)c6n5)c4)CC3)CC2)cc1 | Activity [2]: inactive; Activity [3]: inactive
– | COc1ccc(C(=O)/C=C/C(=O)N2CCN(Cc3ccc(Nc4ncc5ccn(CCCNC(=O)C6CCC6)c5n4)cc3)CC2)cc1 | Activity [2]: Active; Activity [3]: Active
inactive | O=C1CCC(N2C(=O)c3ccc(OCCCCCCCCCCCC(=O)N4CCN(Cc5cccc(Nc6ncc7ccn(CCCNC(=O)C8CCC8)c7n6)c5)CC4)cc3C2=O)C(=O)N1 (stereo unspecified) | –
inactive | Cc1ncsc1-c1ccc(CNC(=O)[C@@H]2C[C@@H](O)CN2C(=O)[C@H](NC(=O)CCCCCCC(=O)N2CCN(Cc3cccc(Nc4ncc5ccn(CCCNC(=O)C6CCC6)c5n4)c3)CC2)C(C)(C)C)cc1 | –
inactive | Cc1ncsc1-c1ccc(CNC(=O)[C@@H]2C[C@@H](O)CN2C(=O)[C@H](NC(=O)CCCCC(=O)N2CCN(Cc3cccc(Nc4ncc5ccn(CCCNC(=O)C6CCC6)c5n4)c3)CC2)C(C)(C)C)cc1 | –
inactive | O=C1CCC(N2C(=O)c3ccc(OCCCCCCCC(=O)N4CCN(Cc5cccc(Nc6ncc7ccn(CCCNC(=O)C8CCC8)c7n6)c5)CC4)cc3C2=O)C(=O)N1 (stereo unspecified) | –
– | COc1ccc(C(=O)/C=C/C(=O)N2CCN(Cc3cccc(Nc4ncc5ccn(CCCNC(=O)C6CCC6)c5n4)c3)CC2)cc1 | Activity [2]: Active; Activity [3]: Active
inactive | Cc1ncsc1-c1ccc(CNC(=O)[C@H]2C[C@H](O)CN2C(=O)[C@@H](NC(=O)COCC(=O)N2CCN(Cc3cccc(Nc4ncc5ccn(CCCNC(=O)C6CCC6)c5n4)c3)CC2)C(C)(C)C)cc1 | –
inactive | O=C1CCC(N2C(=O)c3ccc(OCCCCCCCCCC(=O)N4CCN(Cc5cccc(Nc6ncc7ccn(CCCNC(=O)C8CCC8)c7n6)c5)CC4)cc3C2=O)C(=O)N1 (stereo unspecified) | –
– | COc1ccc(C(=O)/C=C/C(=O)N2CCN(C)CC2)cc1 | Activity [2]: inactive; Activity [3]: inactive
inactive | Cc1ncsc1-c1ccc(CNC(=O)[C@@H]2C[C@@H](O)CN2C(=O)[C@H](NC(=O)CCCCCCCCC(=O)N2CCN(Cc3cccc(Nc4ncc5ccn(CCCNC(=O)C6CCC6)c5n4)c3)CC2)C(C)(C)C)cc1 | –
inactive | O=C1CCC(N2C(=O)c3cccc(NCCCCCCCCCC(=O)N4CCN(Cc5cccc(Nc6ncc7ccn(CCCNC(=O)C8CCC8)c7n6)c5)CC4)c3C2=O)C(=O)N1 (stereo unspecified) | –
inactive | O=C1CCC(N2C(=O)c3cccc(NCCOCCOCCC(=O)N4CCN(Cc5cccc(Nc6ncc7ccn(CCCNC(=O)C8CCC8)c7n6)c5)CC4)c3C2=O)C(=O)N1 (stereo unspecified) | –
inactive | Cc1ncsc1-c1ccc(CNC(=O)[C@H]2C[C@H](O)CN2C(=O)[C@@H](NC(=O)COCCOCCOCC(=O)N2CCN(Cc3cccc(Nc4ncc5ccn(CCCNC(=O)C6CCC6)c5n4)c3)CC2)C(C)(C)C)cc1 | –
– | COc1ccc(C(=O)/C=C(\C#N)C(=O)N2CCN(Cc3cccc(Nc4ncc5ccn(CCCNC(=O)C6CCC6)c5n4)c3)CC2)cc1 | Activity [2]: inactive; Activity [3]: inactive
inactive | Cc1ncsc1-c1ccc(CNC(=O)[C@@H]2C[C@@H](O)CN2C(=O)[C@H](NC(=O)CCCCCCCCCCC(=O)N2CCN(Cc3cccc(Nc4ncc5ccn(CCCNC(=O)C6CCC6)c5n4)c3)CC2)C(C)(C)C)cc1 | –
inactive | O=C1CCC(N2C(=O)c3cccc(NCCCCCC(=O)N4CCN(Cc5cccc(Nc6ncc7ccn(CCCNC(=O)C8CCC8)c7n6)c5)CC4)c3C2=O)C(=O)N1 (stereo unspecified) | –
– | CC(=O)N1CCN(Cc2cccc(Nc3ncc4ccn(CCCNC(=O)C5CCC5)c4n3)c2)CC1 | IC50 [4]: 228 nM; inhibition [5]: inactive
– | Cc1ncsc1-c1ccc(CNC(=O)[C@@H]2C[C@@H](O)CN2C(=O)[C@@H](NC(=O)COCCCOCCCCOCCCOc2ccc(Nc3ncc(Br)c(NCCCN(C)C(=O)C4CCC4)n3)cc2)C(C)(C)C)cc1 | IC50 [4]: 76.4 nM
– | COc1ccc(C(=O)/C(C#N)=C/C(=O)N2CCN(Cc3cccc(Nc4ncc5ccn(CCCNC(=O)C6CCC6)c5n4)c3)CC2)cc1 | Activity [2]: inactive; Activity [3]: inactive

Structure (SMILES) | Activity [1] | other results
Cc1ncsc1-c1ccc(CNC(=O)[C@@H]2C[C@@H](O)CN2C(=O)[C@H](NC(=O)CCC(=O)N2CCN(Cc3cccc(Nc4ncc5ccn(CCCNC(=O)C6CCC6)c5n4)c3)CC2)C(C)(C)C)cc1 | Active; Compound Exhibited Only Weak Degradation Compared To Control 3I | –
O=C1CCC(N2C(=O)c3ccc(OCCCCCC(=O)N4CCN(Cc5cccc(Nc6ncc7ccn(CCCNC(=O)C8CCC8)c7n6)c5)CC4)cc3C2=O)C(=O)N1 (stereo unspecified) | Active; Compound Exhibited Only Weak Degradation Compared To Control 3I | –
O=C1CCC(N2C(=O)c3cccc(NCCCC(=O)N4CCN(Cc5cccc(Nc6ncc7ccn(CCCNC(=O)C8CCC8)c7n6)c5)CC4)c3C2=O)C(=O)N1 (stereo unspecified) | Active; Compound Exhibited Only Weak Degradation Compared To Control 3I | –
